Numbers after ± are expanded uncertainties.
Tests used:
[1] = 101.3 kPa, Liquid; for speed of sound: Linear variable-path acoustic interferometer; for mass density: Pycnometric method
[2] = xn = mol fraction of the nth substance listed; settings: 101 kPa, Liquid; for speed of sound: Linear variable-path acoustic interferometer; for mass density: Pycnometric method

CCN(CC)c1ccccc1 [N,N-diethylaniline]
[1]
Settings | mass density [kg/m3] | speed of sound [m/s]
303.15 K | 926.2 ± 0.3 | 1434 ± 3
313.15 K | 917.6 ± 0.3 | 1396 ± 3
323.15 K | 909.2 ± 0.4 | 1358 ± 3

CCN(CC)c1ccccc1 [N,N-diethylaniline] + C1CCOC1
[2]
Settings | mass density, 303.15 K [kg/m3] | mass density, 313.15 K [kg/m3] | mass density, 323.15 K [kg/m3] | speed of sound, 303.15 K [m/s] | speed of sound, 313.15 K [m/s] | speed of sound, 323.15 K [m/s]
x2 = 0 | 926.2 ± 0.3 | 917.6 ± 0.3 | 909.2 ± 0.4 | 1434 ± 3 | 1396 ± 3 | 1358 ± 3
x2 = 0.0933 | 923.9 ± 0.3 | 915.7 ± 0.3 | 907.8 ± 0.4 | 1428 ± 3 | 1390 ± 3 | 1354 ± 3
x2 = 0.1907 | 921.2 ± 0.3 | 913.3 ± 0.3 | 905.7 ± 0.4 | 1418 ± 3 | 1379 ± 3 | 1343 ± 3
x2 = 0.2899 | 918.2 ± 0.3 | 910.4 ± 0.3 | 903 ± 0.4 | 1405 ± 3 | 1366 ± 3 | 1330 ± 3
x2 = 0.3879 | 914.9 ± 0.3 | 907.1 ± 0.3 | 899.6 ± 0.4 | 1390 ± 3 | 1351 ± 3 | 1315 ± 2
x2 = 0.4892 | 910.8 ± 0.3 | 903.2 ± 0.3 | 895.3 ± 0.4 | 1372 ± 3 | 1333 ± 3 | 1296 ± 2
x2 = 0.5937 | 906 ± 0.3 | 898.4 ± 0.3 | 890.5 ± 0.4 | 1352 ± 3 | 1312 ± 2 | 1275 ± 2
x2 = 0.6904 | 900.9 ± 0.3 | 893.1 ± 0.3 | 885.1 ± 0.4 | 1331 ± 3 | 1291 ± 2 | 1252 ± 2
x2 = 0.7948 | 894.3 ± 0.3 | 886.2 ± 0.3 | 878.1 ± 0.3 | 1307 ± 2 | 1265 ± 2 | 1226 ± 2
x2 = 0.8935 | 886.9 ± 0.3 | 877.9 ± 0.3 | 869.2 ± 0.3 | 1283 ± 2 | 1240 ± 2 | 1200 ± 2

CCN(CC)c1ccccc1 [N,N-diethylaniline] + CC(C)OC(C)C
[2]
Settings | mass density, 303.15 K [kg/m3] | mass density, 313.15 K [kg/m3] | mass density, 323.15 K [kg/m3] | speed of sound, 303.15 K [m/s] | speed of sound, 313.15 K [m/s] | speed of sound, 323.15 K [m/s]
x2 = 0 | 926.2 ± 0.3 | 917.6 ± 0.3 | 909.2 ± 0.4 | 1434 ± 3 | 1396 ± 3 | 1358 ± 3
x2 = 0.078 | 914.4 ± 0.3 | 906.8 ± 0.3 | 899 ± 0.4 | 1403 ± 3 | 1367 ± 3 | 1332 ± 3
x2 = 0.1606 | 901 ± 0.3 | 893.6 ± 0.3 | 886.6 ± 0.4 | 1370 ± 3 | 1336 ± 3 | 1302 ± 2
x2 = 0.2581 | 884 ± 0.3 | 876.7 ± 0.3 | 870.2 ± 0.3 | 1330 ± 3 | 1296 ± 2 | 1261 ± 2
x2 = 0.3421 | 868.5 ± 0.3 | 861.1 ± 0.3 | 854.7 ± 0.3 | 1295 ± 2 | 1260 ± 2 | 1224 ± 2
x2 = 0.4336 | 850.7 ± 0.3 | 843 ± 0.3 | 836.7 ± 0.3 | 1255 ± 2 | 1218 ± 2 | 1182 ± 2
x2 = 0.5341 | 829.8 ± 0.3 | 822.1 ± 0.3 | 815.7 ± 0.3 | 1209 ± 2 | 1171 ± 2 | 1134 ± 2
x2 = 0.6457 | 804.7 ± 0.3 | 797.1 ± 0.3 | 790.6 ± 0.3 | 1156 ± 2 | 1117 ± 2 | 1080 ± 2
x2 = 0.7545 | 778.3 ± 0.3 | 770.6 ± 0.3 | 764 ± 0.3 | 1103 ± 2 | 1063 ± 2 | 1023 ± 2
x2 = 0.8762 | 746.7 ± 0.3 | 738.3 ± 0.3 | 730.8 ± 0.3 | 1042 ± 2 | 1000 ± 2 | 958 ± 2

CN(C)c1ccccc1 [N,N-dimethylaniline]
[1]
Settings | mass density [kg/m3] | speed of sound [m/s]
303.15 K | 948.4 ± 0.3 | 1468 ± 3
313.15 K | 939.8 ± 0.3 | 1431 ± 3
323.15 K | 931.5 ± 0.4 | 1393 ± 3

CN(C)c1ccccc1 [N,N-dimethylaniline] + C1CCOC1
[2]
Settings | mass density, 303.15 K [kg/m3] | mass density, 313.15 K [kg/m3] | mass density, 323.15 K [kg/m3] | speed of sound, 303.15 K [m/s] | speed of sound, 313.15 K [m/s] | speed of sound, 323.15 K [m/s]
x2 = 0 | 948.4 ± 0.3 | 939.8 ± 0.3 | 931.5 ± 0.4 | 1468 ± 3 | 1431 ± 3 | 1393 ± 3
x2 = 0.0683 | 945.8 ± 0.3 | 937.5 ± 0.3 | 929.5 ± 0.4 | 1459 ± 3 | 1424 ± 3 | 1391 ± 3
x2 = 0.1883 | 940.8 ± 0.3 | 932.9 ± 0.3 | 925.2 ± 0.4 | 1439 ± 3 | 1408 ± 3 | 1376 ± 3
x2 = 0.2797 | 936.7 ± 0.3 | 928.6 ± 0.3 | 921.1 ± 0.4 | 1423 ± 3 | 1391 ± 3 | 1359 ± 3
x2 = 0.389 | 931 ± 0.3 | 922.9 ± 0.3 | 915.3 ± 0.4 | 1403 ± 3 | 1370 ± 3 | 1337 ± 3
x2 = 0.4723 | 926.2 ± 0.3 | 918 ± 0.3 | 910.2 ± 0.4 | 1387 ± 3 | 1354 ± 3 | 1319 ± 2
x2 = 0.5757 | 919.3 ± 0.3 | 911.1 ± 0.3 | 903 ± 0.4 | 1365 ± 3 | 1331 ± 3 | 1294 ± 2
x2 = 0.6813 | 910.9 ± 0.3 | 902.8 ± 0.3 | 894.4 ± 0.4 | 1340 ± 3 | 1304 ± 2 | 1267 ± 2
x2 = 0.7866 | 901.1 ± 0.3 | 893.2 ± 0.3 | 884.2 ± 0.4 | 1314 ± 2 | 1276 ± 2 | 1238 ± 2
x2 = 0.8909 | 890.1 ± 0.3 | 881.4 ± 0.3 | 871.7 ± 0.3 | 1287 ± 2 | 1246 ± 2 | 1206 ± 2

CN(C)c1ccccc1 [N,N-dimethylaniline] + CC(C)OC(C)C
[2]
Settings | mass density, 303.15 K [kg/m3] | mass density, 313.15 K [kg/m3] | mass density, 323.15 K [kg/m3] | speed of sound, 303.15 K [m/s] | speed of sound, 313.15 K [m/s] | speed of sound, 323.15 K [m/s]
x2 = 0 | 948.4 ± 0.3 | 939.8 ± 0.3 | 931.5 ± 0.4 | 1468 ± 3 | 1431 ± 3 | 1393 ± 3
x2 = 0.0741 | 932.6 ± 0.3 | 924.8 ± 0.3 | 916.9 ± 0.4 | 1430 ± 3 | 1396 ± 3 | 1360 ± 3
x2 = 0.1589 | 914 ± 0.3 | 906.5 ± 0.3 | 898.6 ± 0.4 | 1385 ± 3 | 1353 ± 3 | 1318 ± 2
x2 = 0.2428 | 895.3 ± 0.3 | 887.5 ± 0.3 | 879.6 ± 0.4 | 1342 ± 3 | 1311 ± 2 | 1277 ± 2
x2 = 0.3355 | 874.3 ± 0.3 | 866.2 ± 0.3 | 858.3 ± 0.4 | 1296 ± 2 | 1262 ± 2 | 1229 ± 2
x2 = 0.4294 | 852.6 ± 0.3 | 844.2 ± 0.3 | 836.3 ± 0.4 | 1250 ± 2 | 1214 ± 2 | 1182 ± 2
x2 = 0.5338 | 827.8 ± 0.3 | 819.2 ± 0.3 | 811.5 ± 0.3 | 1199 ± 2 | 1161 ± 2 | 1128 ± 2
x2 = 0.6362 | 802.8 ± 0.3 | 794.1 ± 0.3 | 786.4 ± 0.3 | 1149 ± 2 | 1112 ± 2 | 1078 ± 2
x2 = 0.7466 | 775.2 ± 0.3 | 766.4 ± 0.3 | 758.5 ± 0.3 | 1096 ± 2 | 1059 ± 2 | 1024 ± 2
x2 = 0.8676 | 744.8 ± 0.3 | 735.7 ± 0.3 | 726.9 ± 0.3 | 1038 ± 2 | 1000 ± 2 | 961 ± 2

CC(C)OC(C)C [diisopropyl ether]
[1]
Settings | mass density [kg/m3] | speed of sound [m/s]
303.15 K | 712.9 ± 0.3 | 976 ± 2
313.15 K | 702.5 ± 0.3 | 932 ± 2
323.15 K | 691.9 ± 0.3 | 889 ± 2

CC(C)OC(C)C [diisopropyl ether] + CCN(CC)c1ccccc1
[2], x1 = 1
Settings | mass density [kg/m3] | speed of sound [m/s]
303.15 K | 712.9 ± 0.3 | 976 ± 2
313.15 K | 702.5 ± 0.3 | 932 ± 2
323.15 K | 691.9 ± 0.3 | 889 ± 2

CC(C)OC(C)C [diisopropyl ether] + CN(C)c1ccccc1
[2], x1 = 1
Settings | mass density [kg/m3] | speed of sound [m/s]
303.15 K | 712.9 ± 0.3 | 976 ± 2
313.15 K | 702.5 ± 0.3 | 932 ± 2
323.15 K | 691.9 ± 0.3 | 889 ± 2

C1CCOC1 [tetrahydrofuran]
[1]
Settings | mass density [kg/m3] | speed of sound [m/s]
303.15 K | 876.9 ± 0.3 | 1254 ± 2
313.15 K | 865.7 ± 0.3 | 1207 ± 2
323.15 K | 854.8 ± 0.3 | 1165 ± 2

C1CCOC1 [tetrahydrofuran] + CCN(CC)c1ccccc1
[2], x1 = 1
Settings | mass density [kg/m3] | speed of sound [m/s]
303.15 K | 876.9 ± 0.3 | 1254 ± 2
313.15 K | 865.7 ± 0.3 | 1207 ± 2
323.15 K | 854.8 ± 0.3 | 1165 ± 2

C1CCOC1 [tetrahydrofuran] + CN(C)c1ccccc1
[2], x1 = 1
Settings | mass density [kg/m3] | speed of sound [m/s]
303.15 K | 876.9 ± 0.3 | 1254 ± 2
313.15 K | 865.7 ± 0.3 | 1207 ± 2
323.15 K | 854.8 ± 0.3 | 1165 ± 2

From the NIST ThermoML archive (doi:10.1016/j.tca.2011.02.004)
